For data set [1], the target named is human immunoproteasome hiβ5 (Homo sapiens, UniProt P20618+P28062). The data set can be described thus: Purified human immunoproteasome β5. The format is biochemical. As to conditions: purified human immunoproteasomes 8 μg/mL, Suc-LLVY-AMC.
Data set [2] deals with yeast 20S proteasome (yCP) yβ5 (Saccharomyces cerevisiae, UniProt P23724+P30656). The data set can be described thus: Purified yeast proteasome inhibition, yβ5. It counts as biochemical.
A further data set has as its system MCF7. As to conditions: MCF7, relative to CysB; cited from earlier work.
The next data set deals with cancer cells. In words: Western blot and flow cytometry analysis of treated cancer cells. The format is cell-based. The following applies: Figure S4.
The next data set relates to hcCP β5 in MCF7 cells. In words: Cellular infiltration: β5 inhibition in intact versus lysed MCF7 cells. It counts as cell-based, human. As to conditions: one hour treatment, relative to 1.

The values that follow come from article PMC6168434 (European journal of medicinal chemistry, 2018).

As for `CC[C@H](C)[C@@H]1C(=O)O[C@H]1C(=O)N[C@H](C(=O)N[C@@H](COCc1ccccc1)C(=O)OCc1ccccc1)C(C)C` [Compound 5k, benzylO-benzyl-N-(((2R,3S)-3-((S)-sec-butyl)-4-oxooxetane-2-carbonyl)-L-valyl)-L-serinate], the “isoform preference hiβ5 versus yβ5” value in data set [1] was “slight preference for hiβ5”.
On to `CC(C)[C@H](NC(=O)[C@@H](NC(=O)[C@@H]1OC(=O)[C@H]1C(C)C)C(C)C)C(=O)O` [Cystargolide B, reference compound], for which the “fold decreased IC50 for yβ5 versus yβ1” value in data set [2] was 50 fold.
For the compound `CC(C)[C@H](NC(=O)[C@@H]1OC(=O)[C@H]1C(C)C)C(=O)N[C@H](C(=O)OCc1ccccc1)C(C)C` [Compound 1], in the data set on MCF7, the “times more cytotoxic than CysB” value is listed as “over 10 times”. In addition, in the data set with cancer cells, the “apoptosis (flow cytometry)” value was “induced apoptosis”, the “cell cycle (flow cytometry)” value is recorded as “arrested cells in the G2/M phase” and the “ubiquitinated proteins (Western blot)” value is “accumulation of ubiquitinated proteins”.
As for `CC[C@H](C)[C@@H]1C(=O)O[C@H]1C(=O)N[C@H](C(=O)N[C@H](C(=O)OCc1ccccc1)C(C)C)C(C)C` [Compound 2, benzyl((2R,3S)-3-((S)-sec-butyl)-4-oxooxetane-2-carbonyl)-L-valyl-L-valinate], the “times more capable of crossing the cell membrane than 1” value in the data set with hcCP β5 in MCF7 cells is recorded as “approximately 10 times”. Moreover, the “isoform preference hiβ5 versus yβ5” value in data set [1] was “slight preference for hiβ5”. In the data set with cancer cells, the “apoptosis (flow cytometry)” value was “induced apoptosis”, the “cell cycle (flow cytometry)” value is on record as “arrested cells in the G2/M phase” and the “ubiquitinated proteins (Western blot)” value was “accumulation of ubiquitinated proteins”.
